Each block holds one compound with its values, some of them ahead of it.
Key:
[1] = Serum calcium concentration in osteoporosis model (oophorectomy) rats; details: OVX rats; for Serum calcium value: 5 times a week for 4 weeks, 24 hours after final administration
Procedure: (§1) After 24 hours from the final administration, blood was drawn under ether anesthesia and the rats were put down. Under anesthesia, bone mineral density of the fourth and fifth lumbar vertebrae was measured by using a dual-energy X-ray bone mineral analyzer (QDR-2000; Hologic, Inc.). For comparison, a sham surgery (sham) group (abdominal operation is performed but the ovary is not removed; the test compounds are not administered) and an oophorectomy (OVX) group (subjected to oophorectomy but the test compounds are not administered) were also subjected to measurement of the bone mineral density of lumbar vertebrae at the time of dissection. Further, measurement of calcium concentration in the serum of each group was also performed.

[2] = test system: osteoporosis model (oophorectomy) rats; test: Bone mineral density-enhancing effect in osteoporosis model (oophorectomy) rats; format: in vivo, rat; details: OVX rats, 5 times a week for 4 weeks, fourth and fifth lumbar vertebrae
Procedure: as §1

[3] = target: T1, human VDR (Homo sapiens, UniProt P11473); test: VDR transcriptional activity in human osteoblast (HOS cells), osteocalcin promoter luciferase reporter; format: cell-based; details: 24 hours incubation
T1 construct: expressed in transfected cells; host or cells: HOS cells (human osteoblast, ATCC)
T1 sequence (P11473 1-427): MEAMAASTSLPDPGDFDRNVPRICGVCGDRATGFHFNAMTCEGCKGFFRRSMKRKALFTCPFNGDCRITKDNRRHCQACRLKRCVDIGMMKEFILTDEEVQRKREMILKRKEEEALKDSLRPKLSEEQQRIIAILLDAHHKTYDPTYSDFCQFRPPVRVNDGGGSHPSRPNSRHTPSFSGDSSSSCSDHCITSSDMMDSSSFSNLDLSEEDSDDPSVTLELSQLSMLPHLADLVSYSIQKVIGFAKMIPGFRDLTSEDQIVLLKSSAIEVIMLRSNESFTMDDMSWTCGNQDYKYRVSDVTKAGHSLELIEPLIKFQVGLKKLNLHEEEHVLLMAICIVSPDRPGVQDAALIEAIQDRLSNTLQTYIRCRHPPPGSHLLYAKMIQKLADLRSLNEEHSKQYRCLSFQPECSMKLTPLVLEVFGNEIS
T1 sequence (P19793 1-462 partner): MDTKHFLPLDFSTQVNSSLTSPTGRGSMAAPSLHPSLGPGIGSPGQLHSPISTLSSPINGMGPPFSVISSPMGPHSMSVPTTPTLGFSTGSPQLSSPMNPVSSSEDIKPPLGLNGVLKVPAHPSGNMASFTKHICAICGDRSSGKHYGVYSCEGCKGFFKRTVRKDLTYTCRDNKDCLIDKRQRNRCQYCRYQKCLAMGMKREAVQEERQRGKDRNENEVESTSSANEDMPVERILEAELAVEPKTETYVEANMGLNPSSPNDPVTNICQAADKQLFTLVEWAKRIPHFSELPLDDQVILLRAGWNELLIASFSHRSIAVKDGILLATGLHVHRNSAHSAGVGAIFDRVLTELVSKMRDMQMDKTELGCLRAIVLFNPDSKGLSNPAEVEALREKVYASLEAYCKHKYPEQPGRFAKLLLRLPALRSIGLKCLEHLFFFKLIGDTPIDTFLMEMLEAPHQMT
Text: (1) A reporter vector was constructed by inserting the sequence of the promoter region of human ostocalcin gene into the upstream of luciferase gene using a pGL3 vector (Promega Corporation), wherein the promoter region of the human ostocalcin gene was cloned using cDNA acquired from HOS cells (purchased from ATCC) by a method known in the literature (Ozono et al., The Journal of Biological Chemistry, 265, 21881-21888 (1990)). The expression vector was constructed by inserting a DNA sequence, which encodes human VDR and human RXR, into a pcDNA3 vector (Invitrogen Corporation). The HOS cells were incubated in a DMEM medium containing 10% FBS under conditions of 37° C. and 5% CO2, and subcultured every 2 or 3 days.
(2) The cells which had been subcultured were recovered by centrifugation and were suspended in serum- and phenol red-free DMEM medium in a density of 4×10^5 cells/mL. This was seeded on a 96-well plate in an amount of 0.1 mL/well. To this system, various vectors described in (1) were added in an amount of 0.05 mL per well using Lipofectamine 2000 (Invitrogen Corporation). After incubation at 37° C. for 3 hours, 2 μl each of ethanol solutions of the test compounds of various concentrations or ethanol as a control was added to each well. After incubation at 37° C. for 24 hours, the medium was removed, the cells were washed once with PBS(−), and thereafter luciferase activity was measured by using a luminometer (Berthold Technologies GmbH & Co. KG) using Dual-Glo Luciferase Assay Kit (Promega Corporation).

[4] = target: T2, VDR (Homo sapiens, UniProt P11473); test: Evaluation of VDR affinity (PolarScreen Vitamin D Receptor Competitor Assay, fluorescence polarization)
T2 sequence (P11473 1-427): T1 sequence (P11473 1-427)
Procedure: VDR was evaluated by using a commercial measurement and evaluation kit, for example, “PolarScreen Vitamin D Receptor Competitor Assay, Red, Cat. No. PV4569” marketed by Invitrogen Corporation, according to the following procedure.
Solutions of the compounds were added to two wells each of a 384-well black plate in 10 μl aliquots. To each well, VDR/Fluoromone VDR Complex included in the kit was added in 10 μl aliquots and allowed to react at room temperature for 2 hours.

SMILES: C=C1/C(=C\C=C2/CCC[C@]3(C)[C@@H]([C@H](C)CC#CC(C)(C)O)CC[C@@H]23)C[C@@H](O)[C@H](OCCC(=O)OCOC(=O)C(C)(C)C)[C@@H]1O [Compound C-7, (5Z,7E)-(1R,2S,3R,20R)-2-((t-butylcarbonyloxy)methoxycarbonylethoxy)-23-yne-9,10-seco-5,7,10(19)-cholestatriene-1,3,25-triol]
- Serum calcium value ([1]; dose 6 ng/kg): 9.83 ± 0.22 mg/dL
- Serum calcium value ([1]; dose 13 ng/kg): 10.07 ± 0.22 mg/dL
- Bone mineral density ([2]; dose 6 ng/kg): 0.2322 ± 0.0092 g/mL
- Bone mineral density ([2]; dose 13 ng/kg): 0.2548 ± 0.0143 g/mL

SMILES: C=C1C(=CC=C2CCCC3(C)C2CCC3C(C)CC#CC(C)(C)O)CC(O)C(OCCC(=O)OC)C1O [Compound C-2, (5Z,7E)-(1R,2S,3R,20R)-2-(2-methoxycarbonylethoxy)-23-yne-9,10-seco-5,7,10(19)-cholestatriene-1,3,25-triol]
- EC50 [3]: ≤ 0.2 nM
- Bone mineral density ([2]; dose 6 ng/kg): 0.2196 ± 0.0177 g/mL
- Bone mineral density ([2]; dose 13 ng/kg): 0.2308 ± 0.0081 g/mL

SMILES: C=C1C(=CC=C2CCCC3(C)C2CCC3C(C)CC#CC(C)(C)O)CC(O)C(OCCC(=O)O)C1O [Compound C-1, (5Z,7E)-(1R,2S,3R,20R)-2-(2-carboxyethoxy)-23-yne-9,10-seco-5,7,10(19)-cholestatriene-1,3,25-triol]
- VDR affinity (in words) [4]: very strong VDR affinity
- EC50 [3]: ≤ 0.2 nM
- Bone mineral density ([2]; dose 4 ng/kg): 0.2223 ± 0.0118 g/mL
- Bone mineral density ([2]; dose 10 ng/kg): 0.2400 ± 0.0065 g/mL

SMILES: C=C1/C(=C\C=C2/CCC[C@]3(C)[C@@H]([C@H](C)CCCC(C)(C)O)CC[C@@H]23)C[C@@H](O)[C@H](OCCCO)[C@@H]1O [2α-(3-hydroxypropyl)oxy-1α,25-dihydroxyvitamin D3, reference compound]
- Serum calcium value ([1]; dose 10 ng/kg): 10.30 ± 0.37 mg/dL
- increase in the serum calcium value ([1]; dose 25 ng/kg necessary for bone mineral density equal to or greater than sham group): ≥ 1 mg/dL
- Serum calcium value ([1]; dose 25 ng/kg): 11.20 ± 0.20 mg/dL
- Bone mineral density ([2]; dose 10 ng/kg): 0.2269 ± 0.0161 g/mL
- Bone mineral density ([2]; dose 25 ng/kg): 0.2473 ± 0.0157 g/mL

SMILES: C=C1/C(=C\C=C2/CCC[C@]3(C)[C@@H]([C@H](C)CC#CC(C)(C)O)CC[C@@H]23)C[C@@H](O)[C@H](OCCC(=O)OC(C)C)[C@@H]1O [Compound C-5, (5Z,7E)-(1R,2S,3R,20R)-2-(2-(1-methyl)ethoxycarbonylethoxy)-23-yne-9,10-seco-5,7,10(19)-cholestatriene-1,3,25-triol]
- Serum calcium value ([1]; dose 17 ng/kg): 9.60 ± 0.15 mg/dL
- Serum calcium value ([1]; dose 50 ng/kg): 10.10 ± 0.21 mg/dL
- Bone mineral density ([2]; dose 17 ng/kg): 0.2316 ± 0.0134 g/mL
- Bone mineral density ([2]; dose 50 ng/kg): 0.2354 ± 0.0126 g/mL

The next lines start with results.

- EC50 [3]: ≤ 0.02 nM
SMILES: C=C1C(=CC=C2CCCC3(C)C2CCC3C(C)CC#CC(O)(CC)CC)CC(O)C(OCCC(=O)O)C1O [Compound F-1, (5Z,7E)-(1R,2S,3R,20R)-2-(2-carboxyethoxy)-26,27-dimethyl-23-yne-9,10-seco-5,7,10(19)-cholestatriene-1,3,25-triol]
- Bone mineral density ([2]; dose 6 ng/kg): 0.2366 ± 0.0139 g/mL

- EC50 [3]: ≤ 0.02 nM
SMILES: C=C1C(=CC=C2CCCC3(C)C2CCC3C(C)CC#CC2(O)CCCC2)CC(O)C(OCCC(=O)O)C1O [Compound F-2, (5Z,7E)-(1R,2S,3R,20R)-2-(2-carboxyethoxy)-26,27-nor-25-cyclopentyl-23-yne-9,10-seco-5,7,10(19)-cholestatriene-1,3,25-triol]

- EC50 [3]: ≤ 0.2 nM
SMILES: C=C1/C(=C\C=C2/CCC[C@@]3(C)C2CC[C@@H]3[C@H](C)CC#CC(C)(C)O)C[C@@H](O)[C@H](OCC2(C(=O)O)CC2)[C@@H]1O (stereo partly drawn) [Compound E-1, (5Z,7E)-(1R,2S,3R,20R)-2-((2-carboxy-2,2-ethano)ethoxy)-23-yne-9,10-seco-5,7,10 (19)-cholestatriene-1,3,25-triol]

- VDR affinity (in words) [4]: very strong VDR affinity
- EC50 [3]: ≤ 0.02 nM
SMILES: C=C1C(=CC=C2CCCC3(C)C2CCC3C(C)CC#CC(C)(C)O)CC(O)C(CCCC(=O)O)C1O [Compound D-1]
- Bone mineral density ([2]; dose 6 ng/kg): 0.2211 ± 0.0175 g/mL
- Bone mineral density ([2]; dose 13 ng/kg): 0.2360 ± 0.0143 g/mL

- Serum calcium value ([1]; dose 50 ng/kg): 9.76 ± 0.29 mg/dL
SMILES: C=C1C(=CC=C2CCCC3(C)C2CCC3C(C)CC#CC(C)(C)O)CC(O)C(CC(C)C(=O)OC(C)(C)C)C1O [Compound D-6, (5Z,7E)-(1S,2S,3R,20R)-2-(2-(1,1-dimethyl)ethoxycarbonylpropyl)-23-yne-9,10-seco-5,7,10(19)-cholestatriene-1,3,25-triol]
- Bone mineral density ([2]; dose 50 ng/kg): 0.2365 ± 0.0204 g/mL
